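Assay format: 96-well plates, 48-hour exposure. GI50 is the concentration that inhibits growth by half.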 Active and inactive are the calls of the source. Rule as the data show it: active = GI50 up to about 1.1 µM and inactive = higher.
Legend:
Test in all cases: growth of human tumour cells (NCI), 48 h
SF-539 = test system: SF-539
Malme-3M = test system: Malme-3M
SF-295 = test system: SF-295
SR = test system: SR
OVCAR-3 = test system: OVCAR-3
SK-MEL-5 = test system: SK-MEL-5
HCT-15 = test system: HCT-15
Hs-578T = test system: Hs-578T
SW-620 = test system: SW-620
U-251 = test system: U-251
MDA-MB-435 = test system: MDA-MB-435
COLO 205 = test system: COLO 205
CAKI-1 = test system: CAKI-1
HL-60 = test system: HL-60
MOLT-4 = test system: MOLT-4
A549 = test system: A549
SNB-75 = test system: SNB-75
HCT-116 = test system: HCT-116
HCC 2998 = test system: HCC 2998

Compound	GI50 (SF-539)	GI50 (Malme-3M)	GI50 (SF-295)	GI50 (SR)	GI50 (OVCAR-3)	GI50 (SK-MEL-5)	GI50 (HCT-15)	GI50 (Hs-578T)	GI50 (SW-620)	GI50 (U-251)	GI50 (MDA-MB-435)	GI50 (COLO 205)	GI50 (CAKI-1)	GI50 (HL-60)	GI50 (MOLT-4)	GI50 (A549)	GI50 (SNB-75)	GI50 (HCT-116)	GI50 (HCC 2998)
NS(=O)(=O)c1ccc(-c2ccc([As](=O)(O)O)cc2)cc1	> 100 µM (inactive)	> 100 µM (inactive)	> 100 µM (inactive)	> 100 µM (inactive)	> 100 µM (inactive)	> 100 µM (inactive)	> 100 µM	> 100 µM (inactive)	> 100 µM (inactive)	> 100 µM (inactive)	> 100 µM (inactive)	> 100 µM (inactive)	> 100 µM (inactive)	> 100 µM (inactive)	> 100 µM (inactive)	> 100 µM (inactive)	11.6 µM (inactive)	> 100 µM (inactive)	–
CCC(C)C1=C(OC(C)=O)[N+]2([O-])Oc3ccc(-c4c(OC(C)=O)c(OC(C)=O)c(-c5ccc(OC(C)=O)cc5)c(OC(C)=O)c4OC(C)=O)cc3OC2(C(C)CC)C(=O)N1OC(C)=O (configuration not stated)	42.3 µM (inactive)	18.7 µM (inactive)	8.69 µM (inactive)	13.7 µM (inactive)	11.4 µM (inactive)	11 µM (inactive)	22.5 µM	–	20.5 µM (inactive)	23.8 µM (inactive)	17.5 µM (inactive)	18.8 µM (inactive)	34 µM (inactive)	7.71 µM (inactive)	11.1 µM (inactive)	18 µM (inactive)	14.8 µM (inactive)	9.62 µM (inactive)	–
COc1ccccc1/C=N/N=C(\N)NO	3.03 µM (inactive)	30 µM (inactive)	3.09 µM (inactive)	31.8 µM (inactive)	45.1 µM (inactive)	2.77 µM (inactive)	6.32 µM	–	21.3 µM (inactive)	48.3 µM (inactive)	–	18.9 µM (inactive)	7.28 µM (inactive)	–	12.6 µM (inactive)	4.76 µM (inactive)	–	25.6 µM (inactive)	4.68 µM (inactive)
Clc1ccccc1C(SCc1ccccc1)SCc1ccccc1	> 100 µM (inactive)	> 100 µM (inactive)	> 100 µM (inactive)	> 100 µM (inactive)	> 100 µM (inactive)	> 100 µM (inactive)	75.2 µM	–	> 100 µM (inactive)	> 100 µM (inactive)	–	> 100 µM (inactive)	> 100 µM (inactive)	64.7 µM (inactive)	> 100 µM (inactive)	> 100 µM (inactive)	41.8 µM (inactive)	> 100 µM (inactive)	> 100 µM (inactive)
Cc1ccc(S(=O)(=O)N(CCN2C(=O)c3ccccc3C2=O)c2cc3c4c(c2)Oc2cc(N(CCN5C(=O)c6ccccc6C5=O)S(=O)(=O)c5ccc(C)cc5)cc5c2C4(C)c2c(cc(N(CCN4C(=O)c6ccccc6C4=O)S(=O)(=O)c4ccc(C)cc4)cc2O5)O3)cc1	> 100 µM (inactive)	–	> 100 µM (inactive)	> 100 µM (inactive)	> 100 µM (inactive)	> 100 µM (inactive)	> 100 µM	> 100 µM (inactive)	> 100 µM (inactive)	> 100 µM (inactive)	> 100 µM (inactive)	> 100 µM (inactive)	> 100 µM (inactive)	> 100 µM (inactive)	> 100 µM (inactive)	> 100 µM (inactive)	> 100 µM (inactive)	> 100 µM (inactive)	–
OC1CSCCCSCCSCCCSC1	> 100 µM (inactive)	–	> 100 µM (inactive)	–	> 100 µM (inactive)	> 100 µM (inactive)	> 100 µM	> 100 µM (inactive)	> 100 µM (inactive)	> 100 µM (inactive)	> 100 µM (inactive)	> 100 µM (inactive)	> 100 µM (inactive)	–	12.1 µM (inactive)	> 100 µM (inactive)	> 100 µM (inactive)	> 100 µM (inactive)	> 100 µM (inactive)
C[C@]12CC[C@@H]3c4cc(Br)c(O)c(Br)c4CC[C@H]3[C@@H]1CCC2=O	19.9 µM (inactive)	85.9 µM (inactive)	16.4 µM (inactive)	–	16.4 µM (inactive)	–	12.4 µM	21.9 µM (inactive)	32.9 µM (inactive)	16.6 µM (inactive)	26.2 µM (inactive)	> 100 µM (inactive)	18.9 µM (inactive)	26.2 µM (inactive)	20.6 µM (inactive)	17.3 µM (inactive)	16.1 µM (inactive)	27.5 µM (inactive)	13.9 µM (inactive)
FC(F)=C(c1ccc(-c2ccc(Cl)cc2)cc1)C(F)(F)F	20.7 µM (inactive)	17.2 µM (inactive)	22.5 µM (inactive)	23.3 µM (inactive)	–	18.2 µM (inactive)	20.4 µM	26.1 µM (inactive)	20 µM (inactive)	16.7 µM (inactive)	20.2 µM (inactive)	17.9 µM (inactive)	19.8 µM (inactive)	45.3 µM (inactive)	32.3 µM (inactive)	17.9 µM (inactive)	11 µM (inactive)	17.5 µM (inactive)	–
C=CCC1(C(=O)OC(C)(C)C)C(OC)=C(C(=O)OC(C)(C)C)C2C1C(C(=O)OC(C)(C)C)=C(OC)C2(CC=C)C(=O)OC(C)(C)C (configuration not stated)	> 100 µM (inactive)	> 10 µM (inactive)	> 100 µM (inactive)	> 100 µM (inactive)	> 100 µM (inactive)	–	> 100 µM	–	> 100 µM (inactive)	–	–	> 100 µM (inactive)	–	> 100 µM (inactive)	> 100 µM (inactive)	> 100 µM (inactive)	> 100 µM (inactive)	–	> 100 µM (inactive)
O=C(c1ccc2ccccc2c1)C1(I)S(=O)(=O)OCCOS1(=O)=O	–	> 100 µM (inactive)	0.0102 µM (active)	> 100 µM (inactive)	> 100 µM (inactive)	> 100 µM (inactive)	> 100 µM	–	–	> 100 µM (inactive)	> 100 µM (inactive)	> 100 µM (inactive)	> 100 µM (inactive)	> 100 µM (inactive)	> 100 µM (inactive)	> 100 µM (inactive)	–	> 100 µM (inactive)	> 100 µM (inactive)
Nc1nc(N)c2c(n1)CCC(S(=O)(=O)c1ccc3ccccc3c1)C2 (configuration not stated)	3.8 µM (inactive)	2.24 µM (inactive)	1.66 µM (inactive)	4.08 µM (inactive)	10.9 µM (inactive)	2.55 µM (inactive)	2.38 µM	–	59.3 µM (inactive)	2.45 µM (inactive)	0.714 µM (active)	8.38 µM (inactive)	6 µM (inactive)	13.5 µM (inactive)	2 µM (inactive)	0.54 µM (active)	–	11.6 µM (inactive)	13.6 µM (inactive)
O=c1cc(NNc2cccc(Cl)c2)[nH]c(=O)[nH]1	> 100 µM (inactive)	16.3 µM (inactive)	–	4.29 µM (inactive)	17.3 µM (inactive)	51.1 µM (inactive)	17.1 µM	> 100 µM (inactive)	18.1 µM (inactive)	> 100 µM (inactive)	–	42.1 µM (inactive)	19.1 µM (inactive)	19.5 µM (inactive)	19.8 µM (inactive)	> 100 µM (inactive)	88.5 µM (inactive)	17.9 µM (inactive)	53 µM (inactive)
O=C1c2ccccc2-c2ccc(/N=N/c3c(O)ccc4ccccc34)cc21	–	19.7 µM (inactive)	> 100 µM (inactive)	–	> 100 µM (inactive)	> 100 µM (inactive)	> 100 µM	> 100 µM (inactive)	> 100 µM (inactive)	> 100 µM (inactive)	33.6 µM (inactive)	> 100 µM (inactive)	> 100 µM (inactive)	–	41.8 µM (inactive)	> 100 µM (inactive)	> 100 µM (inactive)	> 100 µM (inactive)	–
Cc1c(C2CCSc3ccccc3N2)sc2ccccc12 (configuration not stated)	> 100 µM (inactive)	64.3 µM (inactive)	> 100 µM (inactive)	–	> 100 µM (inactive)	> 100 µM (inactive)	74.5 µM	> 100 µM (inactive)	> 100 µM (inactive)	> 100 µM (inactive)	35.2 µM (inactive)	> 100 µM (inactive)	52.5 µM (inactive)	55.5 µM (inactive)	77.3 µM (inactive)	99.8 µM (inactive)	98.2 µM (inactive)	62.1 µM (inactive)	80.4 µM (inactive)
COc1ccc(OCC(=O)O)c(C(=O)CCC(=O)O)c1	> 100 µM (inactive)	> 100 µM (inactive)	> 100 µM (inactive)	> 100 µM (inactive)	> 10 µM (inactive)	> 100 µM (inactive)	> 100 µM	–	> 100 µM (inactive)	> 100 µM (inactive)	–	> 100 µM (inactive)	–	> 100 µM (inactive)	> 100 µM (inactive)	> 100 µM (inactive)	71.8 µM (inactive)	> 100 µM (inactive)	> 100 µM (inactive)
CCC(Oc1ccc(OC)c2ccccc(=O)c12)C(=O)O (configuration not stated)	> 100 µM (inactive)	> 100 µM (inactive)	> 100 µM (inactive)	> 100 µM (inactive)	> 100 µM (inactive)	> 100 µM (inactive)	> 100 µM	–	> 100 µM (inactive)	> 100 µM (inactive)	–	> 100 µM (inactive)	–	> 100 µM (inactive)	> 100 µM (inactive)	> 100 µM (inactive)	> 100 µM (inactive)	> 100 µM (inactive)	> 100 µM (inactive)
O=C(/C=C/c1ccc(O)cc1)NCCc1ccc(O)cc1 [N-P-COUMAROYL TYRAMINE]	3.13 µM (inactive)	> 12.5 µM (inactive)	8.13 µM (inactive)	4.02 µM (inactive)	8.93 µM (inactive)	> 12.5 µM (inactive)	> 12.5 µM	> 12.5 µM (inactive)	> 12.5 µM (inactive)	> 12.5 µM (inactive)	> 12.5 µM (inactive)	> 12.5 µM (inactive)	10.2 µM (inactive)	3.58 µM (inactive)	–	4.06 µM (inactive)	–	> 12.5 µM (inactive)	–
